Experimental data from paper PMC9516243, “Design of stapled peptide-based PROTACs for MDM2/MDMX atypical degradation and tumor suppression” (Theranostics, 2022).
Positions of bridges follow the written chain, without caps; N, C: chain ends. Non-standard residues stand in square brackets, D forms with d. Residues, ends and D or L forms follow the SMILES beside them. Hyp = O=C(O)[C@@H]1C[C@@H](O)CN1; R8 = C=CCCCCCC[C@@](C)(N)C(=O)O; hLeu = CC(C)CC[C@H](N)C(=O)O; S5 = C=CCCC[C@](C)(N)C(=O)O; AEA = NCCOCC(=O)O

Assays:
Pharmacokinetic study = type: in vivo; conditions: mouse, iv, male ICR mice, 1.8 mg/kg single i.v. tail vein, plasma, UPLC-ESI-QqQ-MS, n = 5
Method: The peptides (1.8 mg/kg) were individually dosed in mice intravenously via tail vein injection and the blood samples were collected from the orbital venous plexus at 0, 0.5, 1, 2, 4, 6, 10, 24, and 48 h. All blood samples were centrifuged at 3000 rpm for 10 min, and the obtained plasma samples were immediately frozen at -80 °C until use. The standard curve was established as follows: Stock solutions of PMI-HIF1-1 and SPMI-HIF2-1 dissolved in acetonitrile were spiked into control plasma at final concentrations of 4000, 2000, 1000, 500, 250, 125, 62.5, 31.25, 15.625, 7.8125, 3.90625, 1.953125, and 0.9765625 ng/ml. […] Plasma samples (30 μL) were treated with 90 μL acetonitrile for protein precipitation. Then all samples were vortexed for 2 min and centrifuged for 15 min at 13000 rpm and 4°C. The supernatants were analyzed by ultraperformance liquid chromatography-electrospray ionization-tandem triple quadrupole mass spectrometry (UPLC-ESI-QqQ-MS, Shimadzu 8040). The system was equipped with an XBridge BEH C18 column (2.5 μm, 2.1×100 mm; Waters, Milford, MA, USA). The column temperature was set at 35°C. The injection volume was 4 μl. […] The plasma concentration at each time point was calculated from the extracted peak area of the same mass peaks of each peptide using the corresponding standard curve.

HCT116 p53^-/- cells = assay: Cell viability assay (CCK-8); type: cell-based, human; conditions: CCK-8, 72 h incubation, absorbance 450 nm; read-out: IC50 (μM) HCT116 p53^-/-
Method: (§1) The human colon carcinoma cell line HCT116 p53^+/+ was obtained from the Cell Bank of the Chinese Academy of Sciences (Shanghai, China). HCT116 p53^-/- cells were generously provided by Prof. Vogelstein of Johns Hopkins University. Both cell lines were cultured in McCoy's 5A medium (Gibco, USA) containing 10% FBS, 100 units/ml penicillin, and 100 μg/ml streptomycin at 37 °C in a humidified incubator containing 5% CO2. Cell viability was measured using a Cell Counting Kit-8 (CCK-8) (Dojindo, Kumamoto, Japan) according to the manufacturer's instructions. In brief, the cells (5 × 10^3 cells/well in […] medium) were cultured for 24 h in 96-well microplates in a humidified 5% CO2 incubator at 37 °C and then treated with varying concentrations of compounds or 0.1% DMSO vehicle control.

HCT116 p53^+/+ cells = assay: Cell viability assay (CCK-8); type: cell-based, human
Method: as §1

^25-109MDM2 = target: T1, ^25-109MDM2 (Homo sapiens, UniProt Q00987); assay: FP-based competitive binding assay; conditions: MDM2 40 nM, fluorescently tagged p53 peptide 20 nM, PBS pH 7.4, 30 min room temperature; mean of three independent measurements
T1 construct: established using ^25-109MDM2, ^24-108MDMX
Method: (§2) An FP-based competitive or binding assay was established using ^25-109MDM2, ^24-108MDMX, and a fluorescently tagged p53-derived peptide as previously described. [34]-[36] For dose-dependent competitive binding experiments, MDM2 or MDMX protein (40 nM) was first incubated with TAMRA-p53 peptide (20 nM) in PBS (pH 7.4) on a Costar 96-well plate, to which a serially diluted solution of test peptide was added to a final volume of 125 μL. After 30 min of incubation at room temperature, the FP values were measured at λex = 530 nm and λem = 580 nm on a Tecan Infinite M1000 plate reader. For binding experiments, FITC-labeled SPMI-HIF2-1 (20 nM) was incubated with different concentrations of MDM2, MDMX, and VHL proteins. Curve fitting was performed using GraphPad Prism software, and Ki values were calculated as described previously. Three replicates and three independent experiments were performed.

^24-108MDMX = target: T2, ^24-108MDMX (Homo sapiens, UniProt O15151); assay: FP-based competitive binding assay; conditions: MDMX 40 nM, fluorescently tagged p53 peptide 20 nM, PBS pH 7.4, 30 min room temperature; mean of three independent measurements
T2 construct: ^24-108MDMX, and a fluorescently tagged p53-derived peptide
T2 sequence (O15151 24-108): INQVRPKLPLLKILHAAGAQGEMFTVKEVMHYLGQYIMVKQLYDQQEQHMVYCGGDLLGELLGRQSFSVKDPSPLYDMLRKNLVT
Method: as §2

α-Chymotrypsin = assay: Proteolytic stability against chymotrypsin; type: in vitro ADME; conditions: chymotrypsin 5 ng/μl (10 μl) added to 1 ml of 1 mM peptide, PBS 50 mM pH 7.4, 2 mM CaCl2, 25°C, HPLC, 90 min, read-out: intact peptide still observed after proteolytic digestion for 90 min
Method: Peptides were dissolved in PBS (50 mM, pH = 7.4) to a final concentration of 1 mM. α-Chymotrypsin was dissolved in PBS (50 mM, containing 2 mM of CaCl2, pH = 7.4) to a final concentration of 5 ng/μl. Then the peptide solutions (1 ml) were incubated with […] (10 μl) at 25°C. Samples were taken at 0, 5, 30, 60, 90, and 120 min and reactions were quenched with 20 μL of hydrochloric acid (1 M). The solution of the trypsin peptide fragments was monitored by HPLC at different time points to determine the fraction of protease degradation.

[1] = α-Helicity by CD spectroscopy; type: physicochemical; conditions: PB pH 7.2, 10-50 µM peptide, 20°C, calculated from [θ]222
Method: Peptides were dissolved in PB (pH = 7.2) to concentrations ranging from 10 to 50 µM. CD spectra were obtained on a Jasco J-715 spectropolarimeter at 20°C. The spectra were collected using a 0.1 cm path length quartz cuvette with the following measurement parameters: wavelength, 185-255 nm; step resolution, 0.1 nm; speed, 20 nm/min; accumulations, 6; bandwidth, 1 nm. The helical content of each peptide was calculated as reported previously.

circular dichroism = conditions: phosphate buffer (PB); pH 7.2; 20 °C; 10-50 uM

CC(=O)N[C@H](C(=O)N[C@@H](CO)C(=O)N[C@@H](Cc1ccccc1)C(=O)N[C@]1(C)CCCCCCC=CCCC[C@@](C)(C(=O)NCCOCC(=O)N[C@@H](CC(C)C)C(=O)N[C@@H](C)C(=O)N2C[C@H](O)C[C@H]2C(=O)N[C@@H](Cc2ccc(O)cc2)C(=O)N[C@@H](CCC(C)C)C(=O)N2CCC[C@H]2C(N)=O)NC(=O)[C@H](CC(C)C)NC(=O)[C@H](CC(C)C)NC(=O)[C@H](C)NC(=O)[C@H](Cc2c[nH]c3ccccc23)NC(=O)[C@H](Cc2ccc(O)cc2)NC(=O)[C@H](CCC(=O)O)NC1=O)[C@@H](C)O [SPMI-HIF2-1] (Ac-TSF[R8]EYWALL[S5][AEA]LA[Hyp]Y[hLeu]P-NH2; staple 4-11) gave a Cmax (Pharmacokinetic study; mean) of 17700 ng/mL, an AUC(0-inf) (Pharmacokinetic study) of 43900 ng·h/mL and an MRT (Pharmacokinetic study) of 11.5 h. The half-life (Pharmacokinetic study; read-out: half-life (t1/2) (converted)) was 9.3 h, the IC50 (HCT116 p53^-/- cells) was greater than 100 µM and the “enhancement of IC50 against HCT116 p53^+/+ compared with SPMI2” value (HCT116 p53^+/+ cells; CCK-8, 72 h) was roughly 5 fold. For the same molecule, the IC50 (HCT116 p53^+/+ cells; CCK-8, 72 h incubation, absorbance 450 nm, read-out: IC50 (μM) HCT116 p53^+/+) was 6.7 µM, the Ki (^25-109MDM2) was 350 nM and the Ki (^24-108MDMX) was 530 nM. For the same molecule, the remaining at 1.5 h, 1 mM (α-Chymotrypsin) was greater than 60%, the “α-helicity (%)” value [1] was 37% and the helicity (circular dichroism) was 37%.
